Reference: PubChem BioAssay AID248 (DTP/NCI, 2004)
Values joined by “and” are separate entries in the source; they are usually repeats but may differ in a detail not shown here. Equal entries are not always repeated. Inconclusive results and toxic doses are left out. Cut-off read from the data, not from the text of the source: active = T/C of 150% or more; inactive = T/C below 125%.

System: L1210 leukemia ip in BDF1 mice, survival T/C
Experiment: NCI In Vivo Anticancer Drug Screen. Data for tumor model L1210 Leukemia (intraperitoneal) in B6D2F1 (BDF1) mice
Conditions: endpoint: mean survival time, higher = longer survival
Procedure, shortened: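 Ratio derived from survival: compound-dosed mice over vehicle-dosed mice, all bearing a transplantable tumor.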

[1] = dose: 100.0 mg/kg/injection, schedule: Q01DX001 (ip), vehicle: saline
[2] = dose: 25.0 mg/kg/injection, schedule: Q01DX009 (ip), vehicle: Klucel (hydroxypropylcellulose) (HPC)
[3] = dose: 25.0 mg/kg/injection, schedule: Q04DX003 (ip), vehicle: Klucel (hydroxypropylcellulose) (HPC)
[4] = dose: 50.0 mg/kg/injection, schedule: Q01DX009 (ip), vehicle: Klucel (hydroxypropylcellulose) (HPC)
[5] = dose: 50.0 mg/kg/injection, schedule: Q04DX003 (ip), vehicle: Klucel (hydroxypropylcellulose) (HPC)
[6] = dose: 100.0 mg/kg/injection, schedule: Q04DX003 (ip), vehicle: Klucel (hydroxypropylcellulose) (HPC)
[7] = dose: 100.0 mg/kg/injection, schedule: Q01DX009 (ip), vehicle: Klucel (hydroxypropylcellulose) (HPC)
[8] = dose: 200.0 mg/kg/injection, schedule: Q01DX009 (ip), vehicle: Klucel (hydroxypropylcellulose) (HPC)
[9] = dose: 200.0 mg/kg/injection, schedule: Q04DX003 (ip), vehicle: Klucel (hydroxypropylcellulose) (HPC)
[10] = dose: 400.0 mg/kg/injection, schedule: Q01DX009 (ip), vehicle: Klucel (hydroxypropylcellulose) (HPC)
[11] = dose: 400.0 mg/kg/injection, schedule: Q04DX003 (ip), vehicle: Klucel (hydroxypropylcellulose) (HPC)
[12] = dose: 50.0 mg/kg/injection, schedule: Q01DX009 (ip), vehicle: saline
[13] = dose: 100.0 mg/kg/injection, schedule: Q01DX009 (ip), vehicle: saline
[14] = dose: 200.0 mg/kg/injection, schedule: Q01DX009 (ip), vehicle: saline

Measured: T/C

OC(CCl)COc1ccccc1 (centres undefined)
inactive: dose: 100.0 mg/kg/injection, schedule: Q01DX009 (sc), vehicle: olive oil, sesame oil, peanut oil 91 % of control | dose: 100.0 mg/kg/injection, schedule: Q04DX002 (sc), vehicle: olive oil, sesame oil, peanut oil 101 % of control | dose: 200.0 mg/kg/injection, schedule: Q01DX009 (sc), vehicle: olive oil, sesame oil, peanut oil 105 % of control | dose: 200.0 mg/kg/injection, schedule: Q04DX002 (sc), vehicle: olive oil, sesame oil, peanut oil 104 % of control | dose: 400.0 mg/kg/injection, schedule: Q01DX009 (sc), vehicle: olive oil, sesame oil, peanut oil 94 % of control | dose: 400.0 mg/kg/injection, schedule: Q04DX002 (sc), vehicle: olive oil, sesame oil, peanut oil 96 % of control

CCCCCCCC(=O)N1CCCN(C(=O)CCCCCCC)C1
inactive: dose: 30.0 mg/kg/injection, schedule: Q01DX001 (ip), vehicle: saline 94 % of control | [1] 100 % of control

NC1CCC(CC2CCCCC2)CC1 (centres undefined)
inactive: [2] 96 % of control | [3] 95 % of control | [4] 98 % of control | [5] 100 % of control | [6] 91 % of control

OCc1cc(-c2ccc(Cl)cc2)nc2c(C(F)(F)F)cccc12
inactive: [7] 108 % of control | [6] 102 % of control | [8] 111 % of control | [9] 104 % of control | [10] 109 % of control | [11] 102 % of control

C=CSCCCC(C)=O
inactive: dose: 100.0 mg/kg/injection, schedule: Q01DX001 (ip), vehicle: Klucel (hydroxypropylcellulose) (HPC) 97 % of control | dose: 200.0 mg/kg/injection, schedule: Q01DX001 (ip), vehicle: Klucel (hydroxypropylcellulose) (HPC) 103 % of control | dose: 400.0 mg/kg/injection, schedule: Q01DX001 (ip), vehicle: Klucel (hydroxypropylcellulose) (HPC) 101 % of control

Cc1ccc(N2C=[N+](C)c3ccc(C)cc3C2)cc1
inactive: [6] 100 % of control | [9] 97 % of control

OCC(O)COCc1ccccc1 (centres undefined)
inactive: dose: 100.0 mg/kg/injection, schedule: Q04DX003 (ip), vehicle: saline with Tween-80 109 % of control | dose: 200.0 mg/kg/injection, schedule: Q04DX003 (ip), vehicle: saline with Tween-80 104 % of control | dose: 400.0 mg/kg/injection, schedule: Q04DX003 (ip), vehicle: saline with Tween-80 106 % of control

NC1C(O)C(N)C(O)C(O)C1O (centres undefined)
inactive: dose: 100.0 mg/kg/injection, schedule: Q04DX003 (ip), vehicle: saline sonified 97 % of control | dose: 200.0 mg/kg/injection, schedule: Q04DX003 (ip), vehicle: saline sonified 97 % of control | dose: 400.0 mg/kg/injection, schedule: Q04DX003 (ip), vehicle: saline sonified 95 % of control

c1coc(-c2ncnc3c2Cc2ccccc2-3)c1
inactive: [2] 96 % of control | [3] 98 % of control | [4] 91 % of control | [5] 91 % of control | [7] 102 % of control | [6] 100 % of control

C[N+](C)(C)/N=C\C1CC=CCC1 (centres undefined)
inactive: dose: 12.5 mg/kg/injection, schedule: Q01DX009 (ip), vehicle: saline 99 % of control | dose: 25.0 mg/kg/injection, schedule: Q01DX009 (ip), vehicle: saline 96 % of control | [12] 99 % of control and 105 % of control

OC[CH2][Sb]([Cl])([Cl])([c]1ccccc1)[c]1ccccc1
inactive: dose: 5.0 mg/kg/injection, schedule: Q04DX002 (ip), vehicle: saline with Tween-80 97 % of control | dose: 10.0 mg/kg/injection, schedule: Q04DX002 (ip), vehicle: saline with Tween-80 101 % of control | dose: 20.0 mg/kg/injection, schedule: Q04DX002 (ip), vehicle: saline with Tween-80 101 % of control

NCCNCCN1CC1
inactive: dose: 10.0 mg/kg/injection, schedule: Q04DX002 (ip), vehicle: saline 104 % of control | dose: 20.0 mg/kg/injection, schedule: Q04DX002 (ip), vehicle: saline 115 % of control | dose: 40.0 mg/kg/injection, schedule: Q04DX002 (ip), vehicle: saline 106 % of control

Cc1nc2nc(=S)[nH]c(N)c2nc1C
inactive: dose: 16.0 mg/kg/injection, schedule: Q01DX Z (ip), vehicle: methylcellulose (MC) 86 % of control | dose: 31.0 mg/kg/injection, schedule: Q01DX Z (ip), vehicle: methylcellulose (MC) 91 % of control | dose: 62.0 mg/kg/injection, schedule: Q01DX Z (ip), vehicle: methylcellulose (MC) 88 % of control | dose: 125.0 mg/kg/injection, schedule: Q01DX Z (ip), vehicle: methylcellulose (MC) 95 % of control

O=C(O)CNCCN1CC(=O)N(Cc2ccccc2)C1=S
inactive: dose: 100.0 mg/kg/injection, schedule: Q01DX001 (ip), vehicle: carboxymethylcellulose (CMC) 100 % of control | dose: 100.0 mg/kg/injection, schedule: Q01DX009 (ip), vehicle: carboxymethylcellulose (CMC) 104 % of control | dose: 100.0 mg/kg/injection, schedule: Q04DX002 (ip), vehicle: carboxymethylcellulose (CMC) 94 % of control and 103 % of control | dose: 100.0 mg/kg/injection, schedule: Q04DX003 (ip), vehicle: carboxymethylcellulose (CMC) 100 % of control | dose: 200.0 mg/kg/injection, schedule: Q01DX001 (ip), vehicle: carboxymethylcellulose (CMC) 103 % of control | dose: 200.0 mg/kg/injection, schedule: Q01DX009 (ip), vehicle: carboxymethylcellulose (CMC) 93 % of control and 101 % of control | dose: 200.0 mg/kg/injection, schedule: Q04DX002 (ip), vehicle: carboxymethylcellulose (CMC) 103 % of control and 88 % of control | dose: 200.0 mg/kg/injection, schedule: Q04DX003 (ip), vehicle: carboxymethylcellulose (CMC) 98 % of control | dose: 400.0 mg/kg/injection, schedule: Q01DX001 (ip), vehicle: carboxymethylcellulose (CMC) 101 % of control | dose: 400.0 mg/kg/injection, schedule: Q01DX009 (ip), vehicle: carboxymethylcellulose (CMC) 96 % of control | dose: 400.0 mg/kg/injection, schedule: Q04DX002 (ip), vehicle: carboxymethylcellulose (CMC) 98 % of control and 103 % of control

CC(CN)N(C)C (centres undefined)
inactive: [12] 89 % of control | [13] 95 % of control | dose: 100.0 mg/kg/injection, schedule: Q04DX003 (ip), vehicle: saline 93 % of control | [14] 89 % of control | dose: 200.0 mg/kg/injection, schedule: Q04DX003 (ip), vehicle: saline 97 % of control

CCOC(=O)NC(=S)NN
inactive: [13] 105 % of control | [14] 110 % of control

COc1cc(C)c(C2NC(=O)c3ccccc3N2)cc1C (centres undefined)
inactive: [4] 95 % of control | [7] 104 % of control and 109 % of control | [6] 97 % of control | dose: 150.0 mg/kg/injection, schedule: Q01DX009 (ip), vehicle: Klucel (hydroxypropylcellulose) (HPC) 109 % of control | [8] 100 % of control | [9] 97 % of control | [10] 107 % of control | [11] 103 % of control

CC(=O)C(C)C(C)(C)C (centres undefined)
inactive: [1] 106 % of control | dose: 200.0 mg/kg/injection, schedule: Q01DX001 (ip), vehicle: saline 92 % of control | dose: 400.0 mg/kg/injection, schedule: Q01DX001 (ip), vehicle: saline 97 % of control

Nc1nc(N)c(-c2ccc(Cl)cc2)c(COc2cccc([N+](=O)[O-])c2)n1
inactive: dose: 75.0 mg/kg/injection, schedule: Q01DX001 (ip), vehicle: carboxymethylcellulose (CMC) 89 % of control | dose: 150.0 mg/kg/injection, schedule: Q01DX001 (ip), vehicle: carboxymethylcellulose (CMC) 92 % of control | dose: 300.0 mg/kg/injection, schedule: Q01DX001 (ip), vehicle: carboxymethylcellulose (CMC) 93 % of control

COc1c(C(=O)Nc2ccc(C3=NCCN3)cc2)cccc1C(=O)Nc1ccc(C2=NCCN2)cc1
inactive: dose: 15.0 mg/kg/injection, schedule: Q01DX Z (ip), vehicle: saline 95 % of control | dose: 30.0 mg/kg/injection, schedule: Q01DX Z (ip), vehicle: saline 101 % of control

O=C1C(c2ccccc2)=Nc2ccccc21
inactive: dose: 100.0 mg/kg/injection, schedule: Q04DX002 (ip), vehicle: saline with Tween-80 88 % of control | dose: 200.0 mg/kg/injection, schedule: Q04DX002 (ip), vehicle: saline with Tween-80 88 % of control | dose: 400.0 mg/kg/injection, schedule: Q04DX002 (ip), vehicle: saline with Tween-80 90 % of control

O=S(=O)(Nc1ccc2ccccc2c1)c1cccc2cccnc12
inactive: [6] 98 % of control | [9] 93 % of control | [11] 95 % of control
